# According to US20240279278A1, “NMU RECEPTOR 2 AGONISTS” (Boehringer Ingelheim International GmbH, priority 2023, published 2024):
# Residues, ends and D or L forms follow the SMILES beside them.
# What was measured:
# Assay type in all cases: cell-based
# human NMUR2 receptor [1] = target: T1, human NMUR2 receptor (Homo sapiens, UniProt Q9GZQ4); assay: IP1 Gq HTRF assay, activation of human NMUR2 in buffer; design: expressed in transfected cells; host or cells: CHO-K1; details: CHO-K1 cells expressing human NMUR2, stimulation buffer with 0.1% BSA; read-out: EC50 (hNMUR2) buffer
# T1 sequence (Q9GZQ4 whole entry): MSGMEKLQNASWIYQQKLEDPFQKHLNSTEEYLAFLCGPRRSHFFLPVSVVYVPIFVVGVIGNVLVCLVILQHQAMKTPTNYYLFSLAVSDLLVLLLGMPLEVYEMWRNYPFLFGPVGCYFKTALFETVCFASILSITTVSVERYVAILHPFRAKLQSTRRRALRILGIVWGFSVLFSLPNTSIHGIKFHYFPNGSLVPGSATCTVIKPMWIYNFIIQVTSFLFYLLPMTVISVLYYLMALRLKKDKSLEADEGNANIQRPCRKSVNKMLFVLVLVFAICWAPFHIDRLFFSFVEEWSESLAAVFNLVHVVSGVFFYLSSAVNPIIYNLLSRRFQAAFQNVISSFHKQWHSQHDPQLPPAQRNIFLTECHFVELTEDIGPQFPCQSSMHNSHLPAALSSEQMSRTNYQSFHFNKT
# How it was run: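 CHO-K1 cells stably expressing human NMUR1 or NMUR2, seeded 24 h before assay, stimulated with peptide agonists (8-point dose-response, 1% DMSO final) in HEPES/HBSS buffer with 50 mM LiCl and 0.1% BSA, pH 7.4, 1 h at 37 °C. IP1 accumulation read by HTRF competition (665/620 nm); EC50 from 4-parameter sigmoidal fit.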
# human NMUR1 receptor = target: T2, human NMUR1 receptor (Homo sapiens, UniProt Q9HB89); assay: IP1 Gq HTRF assay, activation of human NMUR1 in buffer; details: CHO-K1 cells expressing human NMUR1, stimulation buffer with 0.1% BSA; read-out: EC50 (hNMUR1) buffer
# T2 construct: expressed in transfected cells; host or cells: CHO-K1
# T2 sequence (Q9HB89 1-426): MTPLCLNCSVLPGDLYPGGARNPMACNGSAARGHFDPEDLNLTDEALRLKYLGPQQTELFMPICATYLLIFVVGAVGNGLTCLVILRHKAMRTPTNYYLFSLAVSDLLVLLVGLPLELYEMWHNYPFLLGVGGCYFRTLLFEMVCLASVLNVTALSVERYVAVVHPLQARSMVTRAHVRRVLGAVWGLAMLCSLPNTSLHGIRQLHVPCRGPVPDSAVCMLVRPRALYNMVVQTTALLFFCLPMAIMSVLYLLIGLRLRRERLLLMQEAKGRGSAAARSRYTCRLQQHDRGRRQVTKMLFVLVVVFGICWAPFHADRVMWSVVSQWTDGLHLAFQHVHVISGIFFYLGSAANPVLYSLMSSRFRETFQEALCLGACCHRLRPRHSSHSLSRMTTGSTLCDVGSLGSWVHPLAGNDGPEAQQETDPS
# Description: Example 3: IP1 Gq HTRF Assay Activation of Human NMUR2 or Human NMUR1 in Buffer Application of the Homogenous Time Resolved Fluorescence (HTRF) technology optimized for Gq coupled receptors has been described in detail in the Cisbio IP-One Gq kit manual. In brief, a FRET signal (FRET: fluorescence resonance energy transfer) is generated between the donor label of an IP-One antibody (anti-IP1-Tb) and the acceptor label of a tagged IP-One (IP1-d2). Agonism of a Gq coupled receptor increases intracellular IP-One, which competes with labeled IP-One and leads to a reduction of the FRET signal. Frozen stocks of CHO-K1 cells stably expressing the human NMUR1 or NMUR2 receptor were thawed and 5000 cells were seeded in culture medium (HAM'S F12, 10% FCS) into each well of a 384-well assay plate. After seeding, cells were incubated for 24 h in a humidified incubator at 37° C. and 5% CO2. Next, cells were washed once with 50 μL of wash buffer (20 mM Hepes, 1×HBSS, pH 7.4), followed by addition of either 10 μL of stimulation buffer (20 mM Hepes, 1×HBSS, 50 mM LiCl, 0.1% BSA, pH 7.4). Peptide agonists to be tested were dissolved in 100% DMSO and pre-diluted in stimulation buffer at a suitable concentration range for an 8 pt dose-response curve. 5 μL of peptide pre-dilution were then added to each well, followed by another 5 μL of stimulation buffer to give a final concentration of 1% DMSO. Samples were subsequently incubated for 1 hour in a humidified incubator at 37° C. After addition of 5 μL each of IP1-d2 and anti-IP1-Tb, samples were incubated for another 1 hour at room temperature and FRET signals (ratio 665 nm/620 nm) were measured. EC50 values were calculated by nonlinear regression using a 4-parameter sigmoidal curve fit.
# human NMUR2 receptor [2] = target: T1, human NMUR2 receptor; assay: IP1 Gq HTRF assay, activation of human NMUR2 in human plasma; design: expressed in transfected cells; host or cells: CHO-K1; details: CHO-K1 cells expressing human NMUR2, 100% human plasma; read-out: EC50 (hNMUR2) human plasma
# How it was run: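 CHO-K1 cells stably expressing human NMUR2 exposed to peptide agonists (8-point dose-response) in 100% human plasma with 50 mM LiCl, 1% DMSO, for 1 h at 37° C. IP1 accumulation read by HTRF competition (665/620 nm ratio). EC50 from 4-parameter sigmoidal fit.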
SMILES,EC50 (human NMUR2 receptor [1]),EC50 (human NMUR1 receptor),EC50 (human NMUR2 receptor [2])
"CCCC[C@H](NC(=O)[C@H](CC(C)C)N(C)C(=O)[C@H](Cc1ccccc1)NC(=O)[C@H](Cc1ccc(O)cc1)NC(=O)CN1CCN(CCNC(=O)CN(C)C(=O)CN(C)C(=O)CN(C)C(=O)CN(C)C(=O)CN(C)C(=O)CN(C)C(=O)CN(C)C(=O)CN(C)C(=O)CN(C)C(=O)CN(C)C(=O)CN(C)C(=O)CN(C)C(=O)CN(C)C(=O)CN(C)C(=O)CN(C)C(=O)CC[C@H](NC(=O)CC[C@H](NC(=O)CC[C@H](NC(=O)CCCCCCCCCCCCCCCCCCC(=O)O)C(=O)O)C(=O)O)C(=O)O)CC1)C(=O)N[C@@H](CCCN)C(=O)NCCC(=O)N[C@@H](CCCNC(=N)N)C(=O)NCC(N)=O [Compound 30, C20DA-gGlu3-Sar15-AEPipAc-Tyr-Phe-NMeLeu-Nle-Orn-bAla-Arg-Gly-NH2] (HELM PEPTIDE1{[O=C(O)CCCCCCCCCCCCCCCCCCC(=O)[*:2]].[gGlu].[gGlu].[gGlu].[Sar].[Sar].[Sar].[Sar].[Sar].[Sar].[Sar].[Sar].[Sar].[Sar].[Sar].[Sar].[Sar].[Sar].[Sar].[O=C(CN1CCN(CCN[*:1])CC1)[*:2]].Y.F.[meL].[Nle].[Orn].[bAla].R.G.[am]}$$$$V2.0)",0.067 µM,> 1 µM,0.725 µM
"CCCC[C@H](NC(=O)[C@H](CC(C)C)N(C)C(=O)[C@H](Cc1ccccc1)NC(=O)[C@H](Cc1ccc(O)cc1)NC(=O)CN1CCN(CCNC(=O)CN(C)C(=O)CN(C)C(=O)CN(C)C(=O)CN(C)C(=O)CN(C)C(=O)CN(C)C(=O)CN(C)C(=O)CN(C)C(=O)CN(C)C(=O)CN(C)C(=O)CN(C)C(=O)CN(C)C(=O)CC[C@H](NC(=O)CC[C@H](NC(=O)CC[C@H](NC(=O)CC[C@H](NC(=O)CCCCCCCCCCCCCCCCCCC(=O)O)C(=O)O)C(=O)O)C(=O)O)C(=O)O)CC1)C(=O)N[C@@H](CCN)C(=O)N(C)[C@@H](C)C(=O)N[C@@H](CCCNC(=N)N)C(=O)NCC(N)=O [Compound 31, C20DA-gGlu4-Sar12-AEPipAc-Tyr-Phe-NMeLeu-Nle-Dbu-NMeAla-Arg-Gly-NH2]",0.0037 µM,> 1 µM,0.0146 µM
"CCCC[C@H](NC(=O)[C@H](CC(C)C)N(C)C(=O)[C@H](Cc1ccccc1)NC(=O)[C@H](Cc1ccc(O)cc1)NC(=O)CN1CCN(CCNC(=O)CN(C)C(=O)CN(C)C(=O)CN(C)C(=O)CN(C)C(=O)CN(C)C(=O)CN(C)C(=O)CN(C)C(=O)CN(C)C(=O)CN(C)C(=O)CN(C)C(=O)CN(C)C(=O)CN(C)C(=O)CC[C@H](NC(=O)CC[C@H](NC(=O)CC[C@H](NC(=O)CC[C@H](NC(=O)CCCCCCCCCCCCCCCCCCC(=O)O)C(=O)O)C(=O)O)C(=O)O)C(=O)O)CC1)C(=O)N[C@@H](CCCCN)C(=O)N1CCC[C@H]1C(=O)N[C@@H](CCCNC(=N)N)C(=O)NCC(N)=O [Compound 32, C20DA-gGlu4-Sar12-AEPipAc-Tyr-Phe-NMeLeu-Nle-Lys-Pro-Arg-Gly-NH2]",0.0065 µM,1.2 µM,0.0312 µM
"CCCC[C@H](NC(=O)[C@H](CC(C)C)N(C)C(=O)[C@H](Cc1ccccc1)NC(=O)[C@H](Cc1ccc(O)cc1)NC(=O)CN1CCN(CCNC(=O)CN(C)C(=O)CN(C)C(=O)CN(C)C(=O)CN(C)C(=O)CN(C)C(=O)CN(C)C(=O)CN(C)C(=O)CN(C)C(=O)CN(C)C(=O)CN(C)C(=O)CN(C)C(=O)CN(C)C(=O)CN(C)C(=O)CN(C)C(=O)CN(C)C(=O)CC[C@H](NC(=O)CC[C@H](NC(=O)CC[C@H](NC(=O)CCCCCCCCCCCCCCCCCCC(=O)O)C(=O)O)C(=O)O)C(=O)O)CC1)C(=O)N[C@@H](CCCN)C(=O)N(C)[C@@H](C)C(=O)N[C@@H](CCCNC(=N)N)C(=O)NCC(N)=O [Compound 34, C20DA-gGlu3-Sar15-AEPipAc-Tyr-Phe-NMeLeu-Nle-Orn-NMeAla-Arg-Gly-NH2] (HELM PEPTIDE1{[O=C(O)CCCCCCCCCCCCCCCCCCC(=O)[*:2]].[gGlu].[gGlu].[gGlu].[Sar].[Sar].[Sar].[Sar].[Sar].[Sar].[Sar].[Sar].[Sar].[Sar].[Sar].[Sar].[Sar].[Sar].[Sar].[O=C(CN1CCN(CCN[*:1])CC1)[*:2]].Y.F.[meL].[Nle].[Orn].[meA].R.G.[am]}$$$$V2.0)",0.009 µM,> 1 µM,0.0246 µM
"CCCC[C@H](NC(=O)[C@H](CC(C)C)N(C)C(=O)[C@H](Cc1ccccc1)NC(=O)[C@H](Cc1ccc(O)cc1)NC(=O)CN1CCN(CCNC(=O)CN(C)C(=O)CN(C)C(=O)CN(C)C(=O)CN(C)C(=O)CN(C)C(=O)CN(C)C(=O)CN(C)C(=O)CN(C)C(=O)CN(C)C(=O)CN(C)C(=O)CN(C)C(=O)CN(C)C(=O)CC[C@H](NC(=O)CC[C@H](NC(=O)CC[C@H](NC(=O)CCCCCCCCCCCCCCCCC(=O)O)C(=O)O)C(=O)O)C(=O)O)CC1)C(=O)N(C)[C@@H](CCCNC(=N)N)C(=O)N1CCC[C@H]1C(=O)N[C@@H](CCCNC(=N)N)C(=O)NCC(N)=O [Compound 35, C18DA-gGlu3-Sar12-AEPipAc-Tyr-Phe-NMeLeu-Nle-NMeArg-Pro-Arg-Gly-NH2]",0.0015 µM,0.19 µM,0.0094 µM
"CCCC[C@H](NC(=O)[C@H](CC(C)C)N(C)C(=O)[C@H](Cc1ccccc1)NC(=O)[C@H](Cc1ccc(O)cc1)NC(=O)CN1CCN(CCNC(=O)CN(C)C(=O)CN(C)C(=O)CN(C)C(=O)CN(C)C(=O)CN(C)C(=O)CN(C)C(=O)CN(C)C(=O)CN(C)C(=O)CN(C)C(=O)CN(C)C(=O)CN(C)C(=O)CN(C)C(=O)CN(C)C(=O)CN(C)C(=O)CN(C)C(=O)CC[C@H](NC(=O)CC[C@H](NC(=O)CC[C@H](NC(=O)CCCCCCCCCCCCCCCCCCC(=O)O)C(=O)O)C(=O)O)C(=O)O)CC1)C(=O)N(C)[C@@H](CCCNC(=N)N)C(=O)N(C)[C@@H](C)C(=O)N[C@@H](CCCNC(=N)N)C(=O)NCC(N)=O [Compound 36, C20DA-gGlu3-Sar15-AEPipAc-Tyr-Phe-NMeLeu-Nle-NMeArg-NMeAla-Arg-Gly-NH2] (HELM PEPTIDE1{[O=C(O)CCCCCCCCCCCCCCCCCCC(=O)[*:2]].[gGlu].[gGlu].[gGlu].[Sar].[Sar].[Sar].[Sar].[Sar].[Sar].[Sar].[Sar].[Sar].[Sar].[Sar].[Sar].[Sar].[Sar].[Sar].[O=C(CN1CCN(CCN[*:1])CC1)[*:2]].Y.F.[meL].[Nle].[meR].[meA].R.G.[am]}$$$$V2.0)",0.0047 µM,1.4 µM,0.0183 µM
"CCCC[C@H](NC(=O)[C@H](CC(C)C)N(C)C(=O)[C@H](Cc1ccccc1)NC(=O)[C@H](Cc1ccc(O)cc1)NC(=O)CN1CCN(CCNC(=O)CN(C)C(=O)CN(C)C(=O)CN(C)C(=O)CN(C)C(=O)CN(C)C(=O)CN(C)C(=O)CN(C)C(=O)CN(C)C(=O)CN(C)C(=O)CN(C)C(=O)CN(C)C(=O)CN(C)C(=O)CC[C@H](NC(=O)CC[C@H](NC(=O)CC[C@H](NC(=O)CCCCCCCCCCCCCCCCC(=O)O)C(=O)O)C(=O)O)C(=O)O)CC1)C(=O)N(C)[C@@H](CCCNC(=N)N)C(=O)N(C)[C@@H](C)C(=O)N[C@@H](CCCNC(=N)N)C(=O)NCC(N)=O [Compound 37, C18DA-gGlu3-Sar12-AEPipAc-Tyr-Phe-NMeLeu-Nle-NMeArg-NMeAla-Arg-Gly-NH2]",0.0035 µM,1.3 µM,0.0271 µM
